The source made the active and inactive calls.
Tests used:
[1] = biological target: T1, G-protein coupled receptor 35 (Homo sapiens, UniProt Q9HC97); assay: SAR Analysis for the identification of Selective Antagonists of ERK1/2 Activity in GPR35-Overexpressing U2OS Cells - Set 2. [Related pubchem assays (depositor defined):AID2058, AID2079]; type: functional, cell-based
[2] = biological target: T2, G-protein coupled receptor 55 (Homo sapiens, UniProt Q9Y2T6); assay: SAR Analysis of Selective Antagonists of GPR55 using an Image-Based Assay - Set 3. [Related pubchem assays (depositor defined):AID2058, AID2079]; type: functional
T2 sequence (Q9Y2T6 whole entry): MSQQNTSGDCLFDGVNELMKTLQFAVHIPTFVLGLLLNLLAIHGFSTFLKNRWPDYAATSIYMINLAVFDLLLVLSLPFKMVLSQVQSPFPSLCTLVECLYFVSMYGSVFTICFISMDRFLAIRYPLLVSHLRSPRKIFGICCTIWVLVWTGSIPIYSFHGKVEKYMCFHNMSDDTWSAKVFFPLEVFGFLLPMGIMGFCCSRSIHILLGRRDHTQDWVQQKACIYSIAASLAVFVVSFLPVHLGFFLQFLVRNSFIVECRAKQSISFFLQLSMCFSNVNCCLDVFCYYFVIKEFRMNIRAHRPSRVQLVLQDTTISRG

[3] = biological target: T1, G-protein coupled receptor 35; assay: GPR35 antagonists blocking zaprinast-driven arrestin recruitment, primary screen, imaging, U2OS, beta-arrestin-GFP, zaprinast agonist (AID 2058); type: functional;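 further: antagonist potency meaning inhibition of agonist-induced arrestin redistribution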
[4] = biological target: T1, G-protein coupled receptor 35; assay: SAR analysis of Antagonists of the GPR35 Receptor using an Image-Based Assay - Set 5. [Related pubchem assays (depositor defined):AID2058, AID2079]; type: functional
Coagulation factor XII = biological target: T3, Coagulation factor XII (Homo sapiens, UniProt P00748); assay: Factor XIIa Dose Response Confirmation from Single Well HTS. [Related pubchem assays (depositor defined):AID701]; type: functional
T3 sequence (P00748 whole entry): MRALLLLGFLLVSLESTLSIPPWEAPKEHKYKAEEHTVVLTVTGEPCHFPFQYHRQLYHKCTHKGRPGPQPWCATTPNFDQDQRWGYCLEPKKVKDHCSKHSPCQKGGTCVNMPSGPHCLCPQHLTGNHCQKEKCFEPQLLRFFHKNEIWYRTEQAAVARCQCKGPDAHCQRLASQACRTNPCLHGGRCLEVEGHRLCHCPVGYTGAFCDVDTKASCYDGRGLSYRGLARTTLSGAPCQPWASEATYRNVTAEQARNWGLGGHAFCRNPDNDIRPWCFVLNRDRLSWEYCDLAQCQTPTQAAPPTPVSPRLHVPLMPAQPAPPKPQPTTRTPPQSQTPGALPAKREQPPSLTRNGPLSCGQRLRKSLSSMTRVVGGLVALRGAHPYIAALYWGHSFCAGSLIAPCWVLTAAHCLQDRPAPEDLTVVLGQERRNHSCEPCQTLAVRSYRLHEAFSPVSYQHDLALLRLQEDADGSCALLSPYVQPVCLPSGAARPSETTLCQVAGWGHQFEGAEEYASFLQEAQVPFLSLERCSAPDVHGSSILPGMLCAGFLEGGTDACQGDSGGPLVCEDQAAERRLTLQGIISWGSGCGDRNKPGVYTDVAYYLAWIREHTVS

[5] = biological target: T2, G-protein coupled receptor 55; assay: GPR55 antagonists blocking LPI-driven arrestin recruitment, primary screen, imaging, U2OS, beta-arrestin-GFP, LPI agonist (AID 2013); type: functional;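 further: antagonist potency measured as reduced agonist-driven arrestin aggregation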
Caspase-7 = biological target: T4, Caspase-7 (Homo sapiens, UniProt P55210); assay: procaspase-7 activators, dose response, counter-screen for procaspase-3 activator project, biochemical, absorbance (AID 489013)
T4 sequence (P55210 whole entry): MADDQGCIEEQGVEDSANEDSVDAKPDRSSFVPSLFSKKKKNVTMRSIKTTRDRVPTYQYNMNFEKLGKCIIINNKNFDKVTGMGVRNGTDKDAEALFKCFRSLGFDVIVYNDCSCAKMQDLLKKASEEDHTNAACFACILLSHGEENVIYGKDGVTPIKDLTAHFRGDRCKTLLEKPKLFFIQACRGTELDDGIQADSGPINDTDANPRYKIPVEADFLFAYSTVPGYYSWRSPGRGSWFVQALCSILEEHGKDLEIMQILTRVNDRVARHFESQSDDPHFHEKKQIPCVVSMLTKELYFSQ

[6] = biological target: T5, Endoribonuclease toxin MazF (Escherichia coli K-12, UniProt P0AE70); assay: fluorescent RNA oligo signal without MazF, dose response, counter-screen for MazEF activator project, biochemical, fluorescence, single-stranded RNase substrate (AID 588502); type: functional
T5 sequence (P0AE70 whole entry): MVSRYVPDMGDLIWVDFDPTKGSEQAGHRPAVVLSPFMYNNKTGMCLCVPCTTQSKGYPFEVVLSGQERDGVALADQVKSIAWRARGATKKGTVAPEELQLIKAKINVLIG

[7] = biological target: T5, Endoribonuclease toxin MazF; assay: MazF toxin RNase activators, dose response, biochemical, fluorescence, single-stranded RNA substrate, uHTS hits (AID 588481); type: functional
Caspase-3 = biological target: T6, Caspase-3 (Homo sapiens, UniProt P42574); assay: procaspase-3 activators, dose response, biochemical, absorbance (AID 489014)
T6 sequence (P42574 whole entry): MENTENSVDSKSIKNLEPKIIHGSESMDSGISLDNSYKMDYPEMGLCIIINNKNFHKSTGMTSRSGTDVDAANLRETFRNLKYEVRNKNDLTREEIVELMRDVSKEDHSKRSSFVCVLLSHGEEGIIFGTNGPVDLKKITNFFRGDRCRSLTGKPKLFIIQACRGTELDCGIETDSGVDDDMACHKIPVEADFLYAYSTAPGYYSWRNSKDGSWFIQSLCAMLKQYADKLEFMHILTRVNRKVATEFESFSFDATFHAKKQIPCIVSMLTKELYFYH

Perilipin-1/ABHD5 = Perilipin-1/ABHD5 (Homo sapiens, UniProt O60240+Q8WTS1); assay: Luminescence-based biochemical high throughput dose response assay for inhibitors of the interaction of the lipase co-activator protein, abhydrolase domain containing 5 (ABHD5) with perilipin-1 (PLIN1) (2K validation set). [Related pubchem assays (depositor defined):AID493027, AID493057]
Perilipin-1/ABHD5, sequence (Q8WTS1 whole entry, the tested form may be a part): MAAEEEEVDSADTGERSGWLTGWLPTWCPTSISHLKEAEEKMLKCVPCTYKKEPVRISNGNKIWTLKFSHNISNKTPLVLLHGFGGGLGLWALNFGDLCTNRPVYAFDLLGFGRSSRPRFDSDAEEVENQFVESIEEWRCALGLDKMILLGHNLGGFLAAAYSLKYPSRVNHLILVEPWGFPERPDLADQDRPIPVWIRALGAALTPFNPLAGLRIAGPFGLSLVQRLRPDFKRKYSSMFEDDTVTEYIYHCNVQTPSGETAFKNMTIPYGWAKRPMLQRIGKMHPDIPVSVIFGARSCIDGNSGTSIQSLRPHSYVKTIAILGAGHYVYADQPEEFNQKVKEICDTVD
Perilipin-1/ABHD5, sequence (O60240 whole entry, the tested form may be a part): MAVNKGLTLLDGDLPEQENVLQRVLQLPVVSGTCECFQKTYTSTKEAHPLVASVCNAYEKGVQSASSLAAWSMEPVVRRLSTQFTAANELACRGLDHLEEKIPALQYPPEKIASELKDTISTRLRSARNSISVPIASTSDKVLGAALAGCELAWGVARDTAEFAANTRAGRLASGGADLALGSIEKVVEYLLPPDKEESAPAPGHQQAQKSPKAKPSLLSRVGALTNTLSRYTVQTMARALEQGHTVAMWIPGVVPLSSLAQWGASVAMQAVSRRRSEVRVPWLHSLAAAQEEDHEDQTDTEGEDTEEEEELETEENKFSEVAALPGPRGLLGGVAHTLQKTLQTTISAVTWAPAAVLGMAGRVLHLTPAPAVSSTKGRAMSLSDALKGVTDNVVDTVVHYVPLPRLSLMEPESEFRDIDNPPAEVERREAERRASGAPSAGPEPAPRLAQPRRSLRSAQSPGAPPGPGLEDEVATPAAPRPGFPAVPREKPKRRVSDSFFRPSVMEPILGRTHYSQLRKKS

[8] = biological target: 1-acylglycerol-3-phosphate O-acyltransferase ABHD5/Perilipin-5 (Homo sapiens, UniProt Q00G26+Q8WTS1); assay: Luminescence-based biochemical high throughput dose response assay for inhibitors of the interaction of the lipase co-activator protein, abhydrolase domain containing 5 (ABHD5) with perilipin-5 (MLDP; PLIN5) (2K validation set). [Related pubchem assays (depositor defined):AID493035, AID493241]
1-acylglycerol-3-phosphate O-acyltransferase ABHD5/Perilipin-5, sequence (Q00G26 whole entry, the tested form may be a part): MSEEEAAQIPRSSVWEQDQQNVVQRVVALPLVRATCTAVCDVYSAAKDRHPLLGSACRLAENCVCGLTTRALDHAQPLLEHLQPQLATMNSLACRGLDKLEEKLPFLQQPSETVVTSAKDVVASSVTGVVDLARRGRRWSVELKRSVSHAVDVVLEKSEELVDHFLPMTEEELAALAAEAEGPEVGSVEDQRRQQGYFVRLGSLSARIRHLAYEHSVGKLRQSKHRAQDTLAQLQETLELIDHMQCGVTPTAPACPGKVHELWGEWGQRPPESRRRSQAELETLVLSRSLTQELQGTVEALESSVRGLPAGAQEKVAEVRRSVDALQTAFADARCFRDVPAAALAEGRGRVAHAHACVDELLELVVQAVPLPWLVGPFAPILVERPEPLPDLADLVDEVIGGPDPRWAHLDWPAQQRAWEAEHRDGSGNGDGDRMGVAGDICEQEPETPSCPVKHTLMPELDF
1-acylglycerol-3-phosphate O-acyltransferase ABHD5/Perilipin-5, sequence (Q8WTS1 whole entry, the tested form may be a part): as the sequence (Q8WTS1 whole entry, the tested form may be a part) above

Beta-galactosidase = Beta-galactosidase (Escherichia coli, UniProt Q8VNN2); assay: beta-galactosidase enzyme inhibitors and activators, dose response, artefact control for CCR6 antagonist project, biochemical, E. coli enzyme, set 3 (AID 504712); type: functional
Beta-galactosidase, sequence (Q8VNN2 whole entry): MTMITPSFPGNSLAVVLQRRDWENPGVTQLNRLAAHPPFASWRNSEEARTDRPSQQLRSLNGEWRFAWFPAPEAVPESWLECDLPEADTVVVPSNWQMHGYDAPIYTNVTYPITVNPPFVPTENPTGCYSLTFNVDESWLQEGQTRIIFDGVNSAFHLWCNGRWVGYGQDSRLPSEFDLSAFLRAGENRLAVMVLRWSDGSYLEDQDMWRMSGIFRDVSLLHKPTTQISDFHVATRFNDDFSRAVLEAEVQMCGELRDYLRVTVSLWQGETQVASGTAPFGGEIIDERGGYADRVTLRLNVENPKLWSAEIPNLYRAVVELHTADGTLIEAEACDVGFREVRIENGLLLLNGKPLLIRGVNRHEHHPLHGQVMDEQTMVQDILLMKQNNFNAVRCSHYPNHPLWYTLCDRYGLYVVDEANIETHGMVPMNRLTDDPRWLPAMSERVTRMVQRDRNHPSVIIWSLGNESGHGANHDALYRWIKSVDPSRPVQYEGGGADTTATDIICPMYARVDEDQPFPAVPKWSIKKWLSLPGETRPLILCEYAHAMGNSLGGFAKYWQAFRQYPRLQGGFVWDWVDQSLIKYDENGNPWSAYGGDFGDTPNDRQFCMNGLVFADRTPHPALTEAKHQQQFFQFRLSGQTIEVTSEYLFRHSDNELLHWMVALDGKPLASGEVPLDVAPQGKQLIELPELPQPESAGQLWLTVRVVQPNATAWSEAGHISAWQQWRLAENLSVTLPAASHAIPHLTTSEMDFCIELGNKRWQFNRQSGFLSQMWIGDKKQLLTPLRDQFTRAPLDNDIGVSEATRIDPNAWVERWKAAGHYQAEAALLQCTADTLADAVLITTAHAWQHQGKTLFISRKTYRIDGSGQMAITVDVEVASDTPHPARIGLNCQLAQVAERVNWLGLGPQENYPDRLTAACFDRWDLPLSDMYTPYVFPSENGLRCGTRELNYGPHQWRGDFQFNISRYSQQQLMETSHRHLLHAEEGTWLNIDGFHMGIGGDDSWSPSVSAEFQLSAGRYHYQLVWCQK

T-cell = assay: inhibitors of CD8+ T cell–vesicle binding, dose response, mouse 2C CD8+ T cells, flow cytometry (AID 485284); type: functional
[9] = biological target: T7, Nucleotide-binding oligomerization domain-containing protein 1 (Homo sapiens, UniProt Q9Y239); assay: NOD1 signaling inhibitors, SAR follow-up, revised (AID 2333); type: functional
T7 sequence (Q9Y239 whole entry): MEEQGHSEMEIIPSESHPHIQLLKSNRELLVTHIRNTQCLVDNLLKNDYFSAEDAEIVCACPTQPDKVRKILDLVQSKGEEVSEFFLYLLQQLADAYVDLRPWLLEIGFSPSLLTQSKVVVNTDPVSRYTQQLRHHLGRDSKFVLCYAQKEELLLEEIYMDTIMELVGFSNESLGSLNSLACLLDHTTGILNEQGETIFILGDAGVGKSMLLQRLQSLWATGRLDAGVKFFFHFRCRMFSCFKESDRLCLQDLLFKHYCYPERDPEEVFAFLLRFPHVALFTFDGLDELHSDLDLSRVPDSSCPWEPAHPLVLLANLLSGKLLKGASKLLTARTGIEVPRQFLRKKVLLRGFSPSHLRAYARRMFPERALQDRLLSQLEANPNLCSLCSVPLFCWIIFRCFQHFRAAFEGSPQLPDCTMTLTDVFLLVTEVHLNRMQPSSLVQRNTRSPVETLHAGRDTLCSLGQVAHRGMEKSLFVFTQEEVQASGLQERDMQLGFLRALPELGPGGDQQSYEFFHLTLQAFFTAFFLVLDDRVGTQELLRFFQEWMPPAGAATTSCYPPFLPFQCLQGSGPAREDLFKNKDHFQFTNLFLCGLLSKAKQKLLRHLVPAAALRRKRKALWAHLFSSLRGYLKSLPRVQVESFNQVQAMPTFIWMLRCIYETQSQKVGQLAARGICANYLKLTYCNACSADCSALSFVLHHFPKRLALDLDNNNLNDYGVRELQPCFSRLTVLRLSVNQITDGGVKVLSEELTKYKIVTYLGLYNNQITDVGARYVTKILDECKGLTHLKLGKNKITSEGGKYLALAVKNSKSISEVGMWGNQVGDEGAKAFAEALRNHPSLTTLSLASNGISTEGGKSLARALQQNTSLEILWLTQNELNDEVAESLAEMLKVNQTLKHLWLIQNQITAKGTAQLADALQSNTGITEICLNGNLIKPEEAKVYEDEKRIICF

HEK293 [10] = assay: NOD2 signaling inhibitors in MDP-stimulated cells, cell-based, uHTS, luminescence (AID 2001); type: functional; details: Homo sapiens
[11] = biological target: T8, Nucleotide-binding oligomerization domain-containing protein 2 (Homo sapiens, UniProt Q9HC29); assay: NOD2 signaling inhibitors, cell-based, luminescence, uHTS, HEK293 (AID 1566); type: functional
T8 sequence (Q9HC29 whole entry, the tested form may be a part): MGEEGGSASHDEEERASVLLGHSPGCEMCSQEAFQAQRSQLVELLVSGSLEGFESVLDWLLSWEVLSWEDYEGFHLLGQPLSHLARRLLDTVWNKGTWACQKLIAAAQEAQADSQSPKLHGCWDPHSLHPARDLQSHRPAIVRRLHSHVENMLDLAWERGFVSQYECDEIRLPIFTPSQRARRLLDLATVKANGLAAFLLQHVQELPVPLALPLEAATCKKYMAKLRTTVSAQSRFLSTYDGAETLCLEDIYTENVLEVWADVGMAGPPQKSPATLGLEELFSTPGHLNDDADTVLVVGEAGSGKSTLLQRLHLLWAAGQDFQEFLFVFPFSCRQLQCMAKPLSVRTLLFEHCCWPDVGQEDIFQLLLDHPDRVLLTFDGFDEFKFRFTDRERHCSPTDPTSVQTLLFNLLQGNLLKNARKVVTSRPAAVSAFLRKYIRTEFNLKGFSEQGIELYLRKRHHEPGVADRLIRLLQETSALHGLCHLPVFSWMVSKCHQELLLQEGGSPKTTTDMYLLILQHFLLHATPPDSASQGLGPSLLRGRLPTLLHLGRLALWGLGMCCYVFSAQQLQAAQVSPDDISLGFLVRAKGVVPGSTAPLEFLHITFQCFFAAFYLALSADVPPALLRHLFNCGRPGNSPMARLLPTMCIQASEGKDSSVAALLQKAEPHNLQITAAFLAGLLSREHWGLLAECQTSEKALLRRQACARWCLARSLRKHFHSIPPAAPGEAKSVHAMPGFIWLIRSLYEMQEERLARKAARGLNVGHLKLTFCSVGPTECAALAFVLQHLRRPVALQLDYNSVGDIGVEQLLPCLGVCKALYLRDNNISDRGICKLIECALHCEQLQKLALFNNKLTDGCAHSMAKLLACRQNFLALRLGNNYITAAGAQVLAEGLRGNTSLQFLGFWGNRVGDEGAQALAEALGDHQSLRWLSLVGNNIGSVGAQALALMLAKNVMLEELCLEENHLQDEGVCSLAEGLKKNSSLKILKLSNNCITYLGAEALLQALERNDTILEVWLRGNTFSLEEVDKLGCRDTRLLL

[12] = THP-1 cell cytotoxicity, dose response, cytotoxicity control for non-replicating M. tuberculosis project (AID 489025); type: functional
[13] = Vero E6 cell cytotoxicity, dose response, cytotoxicity control for non-replicating M. tuberculosis project, secondary assay (AID 492998); type: functional, VeroE6; details: Vero C1008
[14] = system: Streptococcus sp. 'group A'; assay: growth inhibition of control SK(-) GAS strain, dose response, counter-screen for streptokinase expression inhibitor project, luminescence, kanamycin, BacTiterGlo, confirmation (AID 1900); type: functional, organism-based
HEK293 [15] = assay: NOD1 signaling inhibitors, primary screen, cell-based, luminescence, uHTS (AID 1578); type: functional; details: Homo sapiens
HEK293 [16] = assay: cells; type: functional, cell-based; details: Homo sapiens
Streptococcus = assay: Group A Streptococcus viability loss, dose response, counter-screen for streptokinase expression inhibitor project, luminescence, BacTiterGlo (AID 1915); type: functional, organism-based;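 further: potency for reduction of bacterial viability or growth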
Tumor necrosis factor = Tumor necrosis factor (Homo sapiens, UniProt P01375); assay: TNFa-triggered NF-kB activation inhibitors, SAR follow-up, cell-based, revised (AID 2337); type: functional
Tumor necrosis factor, sequence (P01375 whole entry): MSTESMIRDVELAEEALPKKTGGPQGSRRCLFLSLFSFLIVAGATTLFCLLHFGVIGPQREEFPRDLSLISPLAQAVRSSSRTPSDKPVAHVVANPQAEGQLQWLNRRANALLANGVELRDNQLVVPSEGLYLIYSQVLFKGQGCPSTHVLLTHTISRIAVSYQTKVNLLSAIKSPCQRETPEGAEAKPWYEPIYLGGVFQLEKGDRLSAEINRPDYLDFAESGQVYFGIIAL

[17] = HepG2 cell cytotoxicity, dose response, cytotoxicity control for non-replicating M. tuberculosis project (AID 489018); type: functional; details: Mycobacterium tuberculosis
cells = type: functional
[18] = biological target: T8, Nucleotide-binding oligomerization domain-containing protein 2; assay: NOD2 inhibitors, SAR follow-up, set 2 (AID 2475); type: functional
HEK293 [19] = assay: cells; type: functional, cell-based; details: Homo sapiens; remark: listed apart in the source
[20] = biological target: T8, Nucleotide-binding oligomerization domain-containing protein 2; assay: PubChem AID 2334; type: functional
HEK293 [21] = assay: cells; type: functional, cell-based; details: Homo sapiens; remark: listed apart in the source
HEK293 [22] = assay: SAR analysis of compounds that are cytotoxic to HEK293 - Set 2. [Related pubchem assays (depositor defined):AID1575, AID1578, AID1849, AID2001, AID2333, AID2334, AID2335, AID2337, AID2800]; type: functional, cell-based; details: Homo sapiens
HEK293 [23] = assay: cells; details: Homo sapiens
Streptokinase A = biological target: T9, Streptokinase A (Streptococcus pyogenes serotype M1, UniProt P10520); assay: S. pyogenes streptokinase expression inhibitors, potency, dose response, plasminogen activation absorbance, OD405 (AID 1914); type: functional, Streptococcus pyogenes M1 GAS;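 further: secreted streptokinase activity via plasminogen activation per viability signal from cell pellet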
T9 sequence (P10520 whole entry): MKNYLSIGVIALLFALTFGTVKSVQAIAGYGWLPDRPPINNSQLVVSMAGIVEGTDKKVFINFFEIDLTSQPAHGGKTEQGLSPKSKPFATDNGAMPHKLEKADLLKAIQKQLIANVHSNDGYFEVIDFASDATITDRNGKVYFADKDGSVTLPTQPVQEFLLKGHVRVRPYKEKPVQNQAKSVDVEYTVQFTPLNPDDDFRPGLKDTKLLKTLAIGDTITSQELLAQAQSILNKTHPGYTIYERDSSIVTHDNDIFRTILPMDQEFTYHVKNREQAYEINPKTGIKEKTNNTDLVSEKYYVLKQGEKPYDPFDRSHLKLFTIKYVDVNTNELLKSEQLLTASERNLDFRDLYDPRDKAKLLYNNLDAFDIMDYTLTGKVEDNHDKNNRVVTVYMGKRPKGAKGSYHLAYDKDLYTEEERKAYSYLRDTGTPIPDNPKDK

T1 sequence (Q9HC97 whole entry): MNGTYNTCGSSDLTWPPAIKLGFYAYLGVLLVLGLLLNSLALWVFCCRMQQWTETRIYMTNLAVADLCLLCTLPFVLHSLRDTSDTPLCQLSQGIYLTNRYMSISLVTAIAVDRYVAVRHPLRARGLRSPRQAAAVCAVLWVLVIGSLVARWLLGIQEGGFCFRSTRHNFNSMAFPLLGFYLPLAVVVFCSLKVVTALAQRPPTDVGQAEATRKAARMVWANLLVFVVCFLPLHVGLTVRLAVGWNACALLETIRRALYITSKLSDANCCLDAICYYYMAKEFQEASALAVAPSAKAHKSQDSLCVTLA

For `CNC(=S)N/N=C/c1c(C(=O)OC)cnn1-c1ccc(F)cc1F`, the IC50 [1] was 2.29 µM (active), the IC50 [2] was > 32 µM (inactive) and the IC50 [3] was 1.11 µM (active). For the same compound, the IC50 [4] was 2.49 µM (active).
For `Cc1cc(NC(=O)C(C)C)ncc1NC(=O)Cc1ccccc1`, the IC50 (Coagulation factor XII) was > 50 µM (inactive).
With `CCSc1nnc2nc3c(c(O)n12)C1(CCCCC1)Cc1ccccc1-3` the IC50 [5] was 8.6 µM (active).
With `COc1ccccc1Nc1nc2c(C)cccc2cc1C#N` the EC50 (Caspase-7) was 9.49 µM (active), the EC50 [6] was 7.39 µM (active) and the EC50 [7] was > 99 µM (inactive). For the same compound, the EC50 (Caspase-3) was 3.54 µM (active).
For `O=C(/C=C/c1ccc2c(c1)OCO2)c1ccccn1`, the IC50 (Perilipin-1/ABHD5) was 6.85 µM (active) and the IC50 [8] was 6.96 µM (active).
With `O=C(NC(=S)N1CCN(c2ccc(C(F)(F)F)cc2[N+](=O)[O-])CC1)c1cccs1` the IC50 (Beta-galactosidase) was > 66.6 µM (inactive).
In the case of `COc1ccccc1CNC(=O)COc1ccc(C)cc1`, the EC50 (T-cell) was 22.1 µM (active).
In the case of `CCC(=O)Nc1nc2ccccc2n1Cc1ccccc1Cl`, the IC50 [9] was > 20 µM (inactive), the IC50 (HEK293 [10]) was 3.8 µM (active) and the EC50 [11] was > 20 µM (inactive). The CC50 [12] was 29.7 µM (active), the CC50 [13] was 10.9 µM (active) and the EC50 [14] was 6.44 µM (active). For the same compound, the EC50 (HEK293 [15]) was > 20 µM (inactive), the IC50 (HEK293 [16]) was > 20 µM (inactive) and the EC50 (Streptococcus) was 105 µM (active). For the same compound, the IC50 (Tumor necrosis factor) was > 20 µM (inactive), the CC50 [17] was > 20 µM (active) and the IC50 (cells) was 210 nM (active). The IC50 [18] was 5.24 µM (active), the IC50 (HEK293 [19]) was > 20 µM (inactive) and the IC50 [20] was > 20 µM (inactive). The IC50 (HEK293 [21]) was > 20 µM (inactive), the IC50 (HEK293 [22]) was > 20 µM (inactive) and the IC50 (HEK293 [23]) was > 20 µM (inactive). For the same compound, the EC50 (Streptokinase A) was > 150 µM (not active).
